Measured values reported in patent US20220185797A1, “SELECTIVE FOXO INHIBITORS FOR TREATMENT OF DIABETES AND OTHER DISORDERS RELATED TO IMPAIRED PANCREATIC FUNCTION” (THE TRUSTEES OF COLUMBIA UNIVERSITYIN THE CITY OF NEW YORK, priority 2019, published 2022).
pIC50: −log10 of the molar value. Marks after values point to notes of the source that are not given here.

Tested on: not listed separately
Experiment: Metabolic stability in human microsomes
Conditions: Human microsome, 45 min
With `COc1ccc(C(=O)Nc2cc(-c3nc4c(F)cccc4[nH]3)[nH]n2)cc1Cl` [Compound 73] the “% remaining at 45 min” value was 13%. In the case of `COc1ccc(C(=O)Nc2cc(-c3nc4ccccc4[nH]3)n[nH]2)cc1Cl` [Compound 1, reference compound], the “% remaining at 45 min” value was 3.2%. For `COc1cc(C(=O)Nc2cc(-c3nc4ccccc4[nH]3)n[nH]2)ccc1Cl` [Compound 20], the “% remaining at 45 min” value was 52%. For `O=C(Nc1cc(-c2nc3ccccc3[nH]2)n[nH]1)c1ccc(O)c(Cl)c1` [Compound 24], the “% remaining at 45 min” value was 93%.

Same assay, conditions: human, microsomes, pH 7.4
For `COc1ccc(C(=O)Nc2cc(-c3nc4c(F)cccc4[nH]3)[nH]n2)cc1Cl` [Compound 73], the microsomal CLint at 0.75 h, 0.3 μM was 184 µL/min/mg. For `COc1ccc(C(=O)Nc2cc(-c3nc4ccccc4[nH]3)n[nH]2)cc1Cl` [Compound 1, reference compound], the microsomal CLint at 0.75 h, 0.3 μM was 306 µL/min/mg. In the case of `COc1cc(C(=O)Nc2cc(-c3nc4ccccc4[nH]3)n[nH]2)ccc1Cl` [Compound 20], the microsomal CLint at 0.75 h, 0.3 μM was 57 µL/min/mg. For `O=C(Nc1cc(-c2nc3ccccc3[nH]2)n[nH]1)c1ccc(O)c(Cl)c1` [Compound 24], the microsomal CLint at 0.3 μM was under 20 µL/min/mg.

Tested on: not listed separately
Experiment: Metabolic stability in dog microsomes
Conditions: Dog microsome, 45 min
With `COc1ccc(C(=O)Nc2cc(-c3nc4c(F)cccc4[nH]3)[nH]n2)cc1Cl` [Compound 73] the “% remaining at 45 min” value was 31%. In the case of `COc1ccc(C(=O)Nc2cc(-c3nc4ccccc4[nH]3)n[nH]2)cc1Cl` [Compound 1, reference compound], the “% remaining at 45 min” value was 12%. For `COc1cc(C(=O)Nc2cc(-c3nc4ccccc4[nH]3)n[nH]2)ccc1Cl` [Compound 20], the “% remaining at 45 min” value was 53%. For `O=C(Nc1cc(-c2nc3ccccc3[nH]2)n[nH]1)c1ccc(O)c(Cl)c1` [Compound 24], the “% remaining at 45 min” value was 88%.

Same assay, conditions: dog and/or human microsomes; in words
With `COc1ccc(C(=O)Nc2cc(-c3nc4c(F)cccc4[nH]3)[nH]n2)cc1Cl` [Compound 73] the “metabolic stability compared with Compound 9 (Langlet et al.)” value was “significantly more stable”. For `COc1cc(C(=O)Nc2cc(-c3nc4ccccc4[nH]3)n[nH]2)ccc1Cl` [Compound 20], the “metabolic stability compared with Compound 9 (Langlet et al.)” value was “significantly more stable”. With `O=C(Nc1cc(-c2nc3ccccc3[nH]2)n[nH]1)c1ccc(O)c(Cl)c1` [Compound 24] the “metabolic stability compared with Compound 9 (Langlet et al.)” value was “significantly more stable”.

Same assay, conditions: dog, microsomes, pH 7.4
Work on `COc1ccc(C(=O)Nc2cc(-c3nc4c(F)cccc4[nH]3)[nH]n2)cc1Cl` [Compound 73] yielded a microsomal CLint at 0.75 h, 0.3 μM of 104 µL/min/mg. For `COc1ccc(C(=O)Nc2cc(-c3nc4ccccc4[nH]3)n[nH]2)cc1Cl` [Compound 1, reference compound], the microsomal CLint at 0.75 h, 0.3 μM was 185 µL/min/mg. With `COc1cc(C(=O)Nc2cc(-c3nc4ccccc4[nH]3)n[nH]2)ccc1Cl` [Compound 20] the microsomal CLint at 0.75 h, 0.3 μM was 58 µL/min/mg. In the case of `O=C(Nc1cc(-c2nc3ccccc3[nH]2)n[nH]1)c1ccc(O)c(Cl)c1` [Compound 24], the microsomal CLint at 0.3 μM was under 20 µL/min/mg.

Tested on: not listed separately
Experiment: Metabolic stability in mouse microsomes
Type: in vitro ADME
Conditions: CD-1, liver microsomes, pH 7.4; Mouse microsome, 0.3 μM, in vitro intrinsic clearance
`O=C(Nc1cc(-c2nc3ccccc3[nH]2)[nH]n1)c1ccc(N2CCOCC2)cc1` [Compound 67] showed a microsomal CLint at 0.75 h, 0.3 μM of 52 µL/min/mg. Compound `CC(=O)N1CCN(c2ccc(C(=O)Nc3cc(-c4nc5ccccc5[nH]4)n[nH]3)cc2)CC1` [Compound 35] has a microsomal CLint at 0.75 h, 0.3 μM of 70 µL/min/mg. `CN1CCN(c2ccc(C(=O)Nc3cc(-c4nc5ccccc5[nH]4)n[nH]3)cc2)CC1` [Compound 2, reference compound] gave a microsomal CLint at 0.75 h, 0.3 μM of 206 µL/min/mg. Work on `O=C(Nc1cc(-c2nc3ccccc3[nH]2)n[nH]1)c1ccc(N2CCNCC2)cc1` [Compound 36] yielded a microsomal CLint at 0.75 h, 0.3 μM of 41 µL/min/mg.

Same assay, conditions: Mouse microsome, 0.3 μM, 45 min
In the case of `O=C(Nc1cc(-c2nc3ccccc3[nH]2)[nH]n1)c1ccc(N2CCOCC2)cc1` [Compound 67], the “% remaining at 45 min” value was 58%. For `CC(=O)N1CCN(c2ccc(C(=O)Nc3cc(-c4nc5ccccc5[nH]4)n[nH]3)cc2)CC1` [Compound 35], the “% remaining at 45 min” value was 44%. In the case of `CN1CCN(c2ccc(C(=O)Nc3cc(-c4nc5ccccc5[nH]4)n[nH]3)cc2)CC1` [Compound 2, reference compound], the “% remaining at 45 min” value was 10%. With `O=C(Nc1cc(-c2nc3ccccc3[nH]2)n[nH]1)c1ccc(N2CCNCC2)cc1` [Compound 36] the “% remaining at 45 min” value was 68%.

Same assay, conditions: mouse microsomes, and/or human hepatocytes; in words
With `O=C(Nc1cc(-c2nc3ccccc3[nH]2)[nH]n1)c1ccc(N2CCOCC2)cc1` [Compound 67] the “metabolic stability compared with Compound 10 (Langlet et al.)” value was “significantly more stable”. For `CC(=O)N1CCN(c2ccc(C(=O)Nc3cc(-c4nc5ccccc5[nH]4)n[nH]3)cc2)CC1` [Compound 35], the “metabolic stability compared with Compound 10 (Langlet et al.)” value was “significantly more stable”. In the case of `O=C(Nc1cc(-c2nc3ccccc3[nH]2)n[nH]1)c1ccc(N2CCNCC2)cc1` [Compound 36], the “metabolic stability compared with Compound 10 (Langlet et al.)” value was “significantly more stable”.

Target: T1, human FOXO1 (Homo sapiens, UniProt Q12778)
T1 construct: expressed in transfected cells; host or cells: HEK293
T1 sequence (Q12778 whole entry): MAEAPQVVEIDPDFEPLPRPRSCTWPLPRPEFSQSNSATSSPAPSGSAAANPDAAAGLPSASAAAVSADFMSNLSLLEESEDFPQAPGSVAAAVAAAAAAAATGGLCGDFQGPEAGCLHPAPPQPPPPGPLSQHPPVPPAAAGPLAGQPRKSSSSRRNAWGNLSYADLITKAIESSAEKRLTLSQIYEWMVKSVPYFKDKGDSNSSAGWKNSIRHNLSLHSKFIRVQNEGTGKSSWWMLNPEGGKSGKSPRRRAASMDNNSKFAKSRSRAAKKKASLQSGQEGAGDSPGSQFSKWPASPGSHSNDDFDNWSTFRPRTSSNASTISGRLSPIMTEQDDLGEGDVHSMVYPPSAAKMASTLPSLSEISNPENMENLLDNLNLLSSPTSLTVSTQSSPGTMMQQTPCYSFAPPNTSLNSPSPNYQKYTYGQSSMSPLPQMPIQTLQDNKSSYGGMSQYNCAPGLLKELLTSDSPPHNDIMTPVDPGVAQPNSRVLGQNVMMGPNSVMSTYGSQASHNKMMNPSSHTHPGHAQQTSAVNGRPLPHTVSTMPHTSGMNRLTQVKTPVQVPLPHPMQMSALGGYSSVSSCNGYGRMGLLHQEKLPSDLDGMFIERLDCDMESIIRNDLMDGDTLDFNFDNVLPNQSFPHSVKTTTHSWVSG
Experiment: FOXO1 transcriptional reporter assay (insulin response element firefly luciferase / Renilla) in HEK293 cells
Type: cell-based
Conditions: HEK293 cells transfected with human FOXO1, 24 hours, class combines IC50 and maximal inhibition; read-out: IC50 (active range)
Procedure: The activities of FOXO1 inhibitors were determined by a transcriptional reporter assay. HEK293 cells were plated onto 96-well plates with moat at 20000 cells per well in Eagle's Minimum Essential Medium (EMEM) containing 1% fetal bovine serum, and incubated overnight at 37° C. and 5% CO2. […] Compounds were then added at varying final concentrations ranging from 50 μM to 1 nM, with final DMSO concentration of 0.5% in each well. Duplicate wells were included for each treatment condition. Cells were incubated for 24 hours at 37° C. and 5% CO2. Luciferase activities in each well were measured using Dual-Glo Luciferase Assay System (Promega) according to manufacturer's protocol and a plate reader suitable for luminescence detection. Firefly luciferase activity was divided by Renilla luciferase activity to calculate a ratio for each well. The ratio in wells containing cells transfected with all 3 plasmids listed above and receiving only DMSO without compound addition was set to 100%. The ratio in wells containing cells transfected with plasmids (1), (3), and 5 ng of pcDNA3.1 containing the open reading frame of red fluorescent protein (instead of human FOXO1) and treated with DMSO only was set to 0%. The ratio in each well receiving compound treatment was normalized and expressed as a percentage. Data were fit by 4-parameter logistic regression to determine IC50 and maximal inhibition values. Each compound was tested in a minimum of 2 independent experiments.
In the case of `CN1CCC(c2ccc(C(=O)Nc3cc(-c4nc5ccccc5[nH]4)n[nH]3)cc2)CC1` [Compound 42], the pIC50 was over 6.00. `COc1ccc(C(=O)Nc2cc(-c3nc4cc(C(F)(F)F)ccc4[nH]3)[nH]n2)cc1Cl` [Compound 86] showed a pIC50 of over 6.00. Compound `CC(=O)Nc1cc(-c2nc3ccccc3[nH]2)n[nH]1` [Compound 29] has a pIC50 of under 5.00. Work on `COc1ccc(C(=O)Nc2cc(-c3nc4c(C(F)(F)F)cccc4[nH]3)[nH]n2)cc1Cl` [Compound 85] yielded a pIC50 of over 6.00. Work on `CC(=O)N1CCN(c2ccc(C(=O)Nc3cc(-c4nc5ccccc5[nH]4)n[nH]3)cc2)CC1` [Compound 35] yielded a pIC50 of over 6.00. `CN1CCN(c2ccc(C(=O)Nc3cc(-c4nc5ccccc5[nH]4)n[nH]3)cc2)CC1` [Compound 2, reference compound] gave a pIC50 of over 7.30. `COc1ccc(C(=O)Nc2cc(-c3nc4cc(OC(F)(F)F)ccc4[nH]3)[nH]n2)cc1Cl` [Compound 84] showed a pIC50 of 5.00 to 6.00. `Nc1cc(-c2nc3ccccc3[nH]2)n[nH]1` [Compound 32] gave a pIC50 of under 5.00.

Tested on: not listed separately
Experiment: Metabolic stability in human hepatocytes
Conditions: Human hepatocyte, 0.3 μM, 90 min
Procedure: An in vitro system comprising human Hepatocytes was employed. The incubation conditions and sampling time point of test article and positive control were as follows. Test articles (0.3 μM) and positive controls (verapamil) were incubated in a 0.2mL volume in 96-well format. Stock solutions were received at 10 mM in DMSO and the Final DMSO % in incubation was 0.01%. […] Incubation plates were shaken on an automated orbital shaker at 600 rpm. Incubation time points were: 0, 15, 30, 60, 90 minutes.
Following this pre-incubation period, the test compound (DMSO stock solution) was added to the incubation plate, which was mixed to initiate the incubation. The reaction plate was sampled (20 μL aliquot) at the pre-determined incubation time points, the sample quenched with 80 μL of Stop solution with internal standard (Acetonitrile with 0.1% (v/v) formic acid containing 100 nM labetalol, 20 nM imipramine, and 200 nM diclofenac) and the samples were mixed well. After quenching the reaction, the reaction mixture was centrifuged and the samples were submitted for LC-MS/MS analysis. Depletion rate (kdep, min^−1) and % compound remaining was calculated by peak area ratio (PAR) with internal standard at each time point relative to time 0 min. The estimation of Clint(Unscaled) (in μl/min/10^6 cells) was performed with the following equation:
In the case of `CN1CCN(c2ccc(C(=O)Nc3cc(-c4nc5ccccc5[nH]4)n[nH]3)cc2)CC1` [Compound 2, reference compound], the “% remaining at 90 min” value was 22%. For `O=C(Nc1cc(-c2nc3ccccc3[nH]2)n[nH]1)c1ccc(N2CCNCC2)cc1` [Compound 36], the “% remaining at 90 min” value was 110 * %.

Same assay, conditions: human, hepatocytes (cryopreserved)
`CN1CCN(c2ccc(C(=O)Nc3cc(-c4nc5ccccc5[nH]4)n[nH]3)cc2)CC1` [Compound 2, reference compound] gave a hepatocyte CLint at 1.5 h, 0.3 µM of 18 µL/min/1e6 cells. In the case of `O=C(Nc1cc(-c2nc3ccccc3[nH]2)n[nH]1)c1ccc(N2CCNCC2)cc1` [Compound 36], the hepatocyte CLint at 1.5 h, 0.3 µM was 2.6 µL/min/1e6 cells.

Target: T2, acetylcholinesterase (AChE) (Homo sapiens, UniProt P22303)
T2 construct: host or cells: CHO cells
T2 sequence (P22303 32-614): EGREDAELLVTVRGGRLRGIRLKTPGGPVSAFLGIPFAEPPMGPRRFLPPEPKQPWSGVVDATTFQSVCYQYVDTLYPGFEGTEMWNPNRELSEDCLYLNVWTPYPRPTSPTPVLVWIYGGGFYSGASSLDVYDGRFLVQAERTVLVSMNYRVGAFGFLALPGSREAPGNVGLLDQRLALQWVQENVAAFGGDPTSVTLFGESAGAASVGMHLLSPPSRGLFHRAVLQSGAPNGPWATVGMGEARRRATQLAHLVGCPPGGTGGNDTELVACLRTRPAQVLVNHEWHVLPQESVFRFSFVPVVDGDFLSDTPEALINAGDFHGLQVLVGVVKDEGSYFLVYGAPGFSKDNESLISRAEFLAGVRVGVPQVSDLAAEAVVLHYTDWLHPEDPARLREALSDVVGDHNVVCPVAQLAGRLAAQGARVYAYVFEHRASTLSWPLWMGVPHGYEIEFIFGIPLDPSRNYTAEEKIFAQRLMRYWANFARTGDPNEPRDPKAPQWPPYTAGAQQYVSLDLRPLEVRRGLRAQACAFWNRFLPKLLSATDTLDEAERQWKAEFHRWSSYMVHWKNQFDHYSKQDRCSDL
Experiment: biochemical
Type: biochemical
Conditions: Human recombinant AChE expressed in CHO cells; read-out: AChE Inhibitor IC50
Procedure: The protein source was Human (recombinant) Expressed in CHO cells. The enzymatic activity was studied. The method employed was the detection of conversion of acetylthiocholine to thiocholine using DTNB. The substrate employed was Acetylthiocholine.
Enzyme and test compound were pre-incubated for 15 minutes at room temp before substrate addition. Acetylthiocholine and DTNB (5,5′-dithiobis-(2-nitrobenzoic acid)) were added and incubated at room temperature for 30 minutes. Signal was detected by measuring absorbance at 405 nm.
Percentage inhibition was calculated using the following formula: […]
In the case of `O=C(Nc1cc(-c2nc3ccccc3[nH]2)[nH]n1)c1ccc(N2CCOCC2)cc1` [Compound 67], the pIC50 was under 5.00. `O=C(Nc1cc(-c2nc3ccccc3[nH]2)n[nH]1)c1ccc(N2CCNCC2)cc1` [Compound 36] showed a pIC50 of under 5.00.

Same assay, conditions: selectivity studies, Table 4; read-out: AChE IC50
Work on `COc1ccc(C(=O)N(C)c2cc(-c3nc4ccccc4[nH]3)n[nH]2)cc1Cl` [Compound 37] yielded a pIC50 of under 5.00. Compound `CN1CCN(c2ccc(C(=O)Nc3cc(-c4nc5ccccc5[nH]4)n[nH]3)cc2)CC1` [Compound 2, reference compound] has a pIC50 of 5.77.
